Assay results: US7135279B2 (priority 1992, dated 2006)

Tests used:
[1] = control of morning sickness during pregnancy; cited from earlier work
[2] = test system: D-[Aba^67.95 (CO-S)^51–52]2 HIV-1 PR; assay: Fluorogenic assay of inhibitors against the D-ligation analog; format: biochemical; details: corresponding chiral substrate, 5×1C50 concentration of inhibitor
Description: (§1) The D- and L-enzymes were separately assayed by the fluorogenic assay method using the corresponding chiral substrate, in the presence of 5×1C50 concentration of inhibitor. The fluorogenic assays were performed with 15 ul aliquots (corresponding to […] protein) of each enzyme enantiomer in 100 millimolar MES buffer pH 6.5 added to a solution of […] D- or L-fluorogenic substrate in the MES buffer. The substrate sequence was 2-aminobenzoyl-Thr-Ile-Nle-Phe(p-NO2)-Gln-Arg amide (SEQ ID NO 2): it was synthesized with either D- or L-amino acid derivatives to provide the appropriate enantiomeric forms. The inhibitor Evans Blue is a non-peptide, achiral mixed competitive-uncompetitive inhibitor of the HIV-1 PR enzyme.

[3] = target: T1, L-[Aba^67.95 (CO-S)^51–52]2 HIV-1 PR (Human immunodeficiency virus type 1 group M subtype B, UniProt P03369, C557A/C585A); assay: Fluorogenic assay of inhibitors against the L-ligation analog; format: biochemical; details: corresponding chiral substrate, 5×1C50 concentration of inhibitor
T1 construct: to form the ligated 99-residue D- and L-[(NHCH2COSCH2 CO)^51-52]; HIV-1 PR products; made in house; host or cells: total chemical synthesis: solid-phase segments 1-51 and 53-99 joined by chemical ligation
Description: as §1

Compound	sedative effect [1]	inhibition of D-[Aba^67.95 (CO-S)^51–52]2 HIV-1 PR [2]	inhibition of L-[Aba^67.95 (CO-S)^51–52]2 HIV-1 PR [3]
O=C1CC[C@@H](N2C(=O)c3ccccc3C2=O)C(=O)N1 (single isomer, unassigned) [D-enantiomer of thalidomide]	safe and effective sedative	–	–
Ac-Thr-Ile-Nle-psi[CH2NH]-Nle-Gln-Arg.amide [D-MVT101]	–	inhibits	no effect
Ac-Thr-Ile-Nle-psi[CH2NH]-Nle-Gln-Arg.amide [L-MVT101]	–	no effect	inhibits
